In ChEMBL document CHEMBL3991601, “The target landscape of clinical kinase drugs” (Science, 2017) one finds Kd data, which are given here for ten compounds.

In assay [1] the target is T1, Peroxisomal acyl-coenzyme A oxidase 1 (Homo sapiens, UniProt Q15067).
T1 sequence (Q15067 whole entry): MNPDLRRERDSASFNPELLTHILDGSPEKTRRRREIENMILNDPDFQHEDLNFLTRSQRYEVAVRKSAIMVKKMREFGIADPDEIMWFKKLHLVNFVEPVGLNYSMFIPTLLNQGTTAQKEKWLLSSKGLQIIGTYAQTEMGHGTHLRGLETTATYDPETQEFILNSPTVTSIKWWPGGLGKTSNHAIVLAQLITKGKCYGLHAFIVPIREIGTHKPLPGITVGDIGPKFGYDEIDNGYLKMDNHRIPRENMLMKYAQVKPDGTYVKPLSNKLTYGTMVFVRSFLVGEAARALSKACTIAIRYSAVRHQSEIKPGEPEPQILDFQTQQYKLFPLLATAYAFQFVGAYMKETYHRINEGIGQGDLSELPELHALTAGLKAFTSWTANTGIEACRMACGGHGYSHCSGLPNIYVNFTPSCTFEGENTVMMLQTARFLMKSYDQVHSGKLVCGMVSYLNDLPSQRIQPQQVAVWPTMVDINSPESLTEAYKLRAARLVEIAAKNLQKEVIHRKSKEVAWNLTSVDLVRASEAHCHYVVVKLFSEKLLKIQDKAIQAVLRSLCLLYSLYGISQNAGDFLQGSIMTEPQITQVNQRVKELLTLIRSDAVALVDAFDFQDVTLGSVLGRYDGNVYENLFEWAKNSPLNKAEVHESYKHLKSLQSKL

Assay [2] concerns the target T2, Bone morphogenetic protein receptor type-2 (Homo sapiens, UniProt Q13873).
T2 sequence (Q13873 whole entry): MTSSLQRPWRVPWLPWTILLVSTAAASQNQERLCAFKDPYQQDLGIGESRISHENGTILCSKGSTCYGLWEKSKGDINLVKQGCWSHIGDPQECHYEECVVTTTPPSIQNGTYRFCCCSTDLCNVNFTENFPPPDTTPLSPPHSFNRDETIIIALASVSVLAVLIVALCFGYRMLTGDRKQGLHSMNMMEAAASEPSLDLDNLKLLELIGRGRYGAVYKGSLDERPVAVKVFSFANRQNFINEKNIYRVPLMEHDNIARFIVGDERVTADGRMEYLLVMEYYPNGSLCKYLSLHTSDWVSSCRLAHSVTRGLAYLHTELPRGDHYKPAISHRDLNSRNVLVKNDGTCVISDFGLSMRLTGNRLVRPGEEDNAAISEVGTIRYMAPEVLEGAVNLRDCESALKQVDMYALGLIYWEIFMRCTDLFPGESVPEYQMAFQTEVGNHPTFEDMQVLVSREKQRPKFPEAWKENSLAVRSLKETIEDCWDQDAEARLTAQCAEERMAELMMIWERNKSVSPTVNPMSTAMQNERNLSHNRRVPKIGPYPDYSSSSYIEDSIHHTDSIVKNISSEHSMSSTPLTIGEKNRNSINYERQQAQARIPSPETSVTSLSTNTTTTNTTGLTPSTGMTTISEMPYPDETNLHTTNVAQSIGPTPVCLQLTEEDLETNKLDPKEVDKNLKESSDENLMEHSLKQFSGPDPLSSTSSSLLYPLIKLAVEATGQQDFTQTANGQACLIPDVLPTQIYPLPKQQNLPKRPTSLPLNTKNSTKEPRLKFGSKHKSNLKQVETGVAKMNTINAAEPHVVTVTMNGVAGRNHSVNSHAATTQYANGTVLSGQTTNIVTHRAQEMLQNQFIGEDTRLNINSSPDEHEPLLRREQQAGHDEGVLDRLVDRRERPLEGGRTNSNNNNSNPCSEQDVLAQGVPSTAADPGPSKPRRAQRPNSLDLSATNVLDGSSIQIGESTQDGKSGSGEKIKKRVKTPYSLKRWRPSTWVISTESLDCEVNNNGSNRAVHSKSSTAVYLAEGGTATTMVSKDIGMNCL

The target in assay [3] is Serine/threonine-protein kinase B-raf (Homo sapiens, UniProt P15056).
Sequence of Serine/threonine-protein kinase B-raf (P15056 whole entry): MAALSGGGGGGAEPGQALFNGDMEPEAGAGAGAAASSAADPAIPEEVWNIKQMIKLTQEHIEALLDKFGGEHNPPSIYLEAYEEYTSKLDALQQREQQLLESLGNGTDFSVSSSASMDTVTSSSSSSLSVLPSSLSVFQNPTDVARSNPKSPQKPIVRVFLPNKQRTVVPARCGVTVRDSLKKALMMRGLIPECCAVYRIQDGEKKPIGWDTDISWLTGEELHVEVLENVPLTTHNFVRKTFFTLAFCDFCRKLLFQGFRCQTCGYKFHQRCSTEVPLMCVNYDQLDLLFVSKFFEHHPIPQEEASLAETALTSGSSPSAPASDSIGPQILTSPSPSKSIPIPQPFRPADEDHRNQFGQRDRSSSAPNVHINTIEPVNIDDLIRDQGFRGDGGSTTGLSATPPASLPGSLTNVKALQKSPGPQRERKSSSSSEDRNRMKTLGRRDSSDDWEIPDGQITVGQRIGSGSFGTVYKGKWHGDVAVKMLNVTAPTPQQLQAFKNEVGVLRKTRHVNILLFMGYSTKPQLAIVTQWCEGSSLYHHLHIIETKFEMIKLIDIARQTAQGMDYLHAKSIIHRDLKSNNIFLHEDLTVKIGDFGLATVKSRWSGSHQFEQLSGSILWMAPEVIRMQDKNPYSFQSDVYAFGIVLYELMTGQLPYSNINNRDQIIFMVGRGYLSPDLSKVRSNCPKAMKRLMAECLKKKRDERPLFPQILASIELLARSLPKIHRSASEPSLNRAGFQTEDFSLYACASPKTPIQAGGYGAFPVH
A further assay addresses T3, dCTP pyrophosphatase 1 (Homo sapiens, UniProt Q9H773).
T3 sequence (Q9H773 whole entry): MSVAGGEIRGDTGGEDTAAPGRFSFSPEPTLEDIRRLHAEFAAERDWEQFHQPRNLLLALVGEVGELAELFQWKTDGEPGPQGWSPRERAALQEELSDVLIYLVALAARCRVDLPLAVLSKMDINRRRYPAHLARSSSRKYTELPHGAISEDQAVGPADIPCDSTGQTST

The target in assay [4] is Insulin-like growth factor 1 receptor (Homo sapiens, UniProt P08069).
Sequence of Insulin-like growth factor 1 receptor (P08069 31-736 limits assumed): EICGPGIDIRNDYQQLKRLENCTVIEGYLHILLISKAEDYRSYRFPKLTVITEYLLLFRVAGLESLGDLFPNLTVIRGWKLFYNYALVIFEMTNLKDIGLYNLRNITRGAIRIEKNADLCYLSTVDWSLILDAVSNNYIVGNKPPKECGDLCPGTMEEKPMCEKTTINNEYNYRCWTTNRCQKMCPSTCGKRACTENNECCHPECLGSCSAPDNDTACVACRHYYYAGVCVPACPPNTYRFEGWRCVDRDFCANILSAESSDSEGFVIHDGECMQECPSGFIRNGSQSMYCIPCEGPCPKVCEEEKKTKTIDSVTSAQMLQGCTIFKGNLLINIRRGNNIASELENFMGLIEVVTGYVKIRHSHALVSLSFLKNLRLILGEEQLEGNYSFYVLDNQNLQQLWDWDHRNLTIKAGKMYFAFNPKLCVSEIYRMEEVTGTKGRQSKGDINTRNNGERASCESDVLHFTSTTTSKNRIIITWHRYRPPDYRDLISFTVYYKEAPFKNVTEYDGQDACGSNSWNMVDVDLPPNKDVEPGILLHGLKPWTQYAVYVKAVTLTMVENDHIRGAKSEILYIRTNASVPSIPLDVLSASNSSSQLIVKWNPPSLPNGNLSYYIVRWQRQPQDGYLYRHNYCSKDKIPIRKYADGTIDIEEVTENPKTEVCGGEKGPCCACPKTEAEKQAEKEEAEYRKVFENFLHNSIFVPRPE
Sequence of Insulin-like growth factor 1 receptor (P08069 741-1367 limits assumed): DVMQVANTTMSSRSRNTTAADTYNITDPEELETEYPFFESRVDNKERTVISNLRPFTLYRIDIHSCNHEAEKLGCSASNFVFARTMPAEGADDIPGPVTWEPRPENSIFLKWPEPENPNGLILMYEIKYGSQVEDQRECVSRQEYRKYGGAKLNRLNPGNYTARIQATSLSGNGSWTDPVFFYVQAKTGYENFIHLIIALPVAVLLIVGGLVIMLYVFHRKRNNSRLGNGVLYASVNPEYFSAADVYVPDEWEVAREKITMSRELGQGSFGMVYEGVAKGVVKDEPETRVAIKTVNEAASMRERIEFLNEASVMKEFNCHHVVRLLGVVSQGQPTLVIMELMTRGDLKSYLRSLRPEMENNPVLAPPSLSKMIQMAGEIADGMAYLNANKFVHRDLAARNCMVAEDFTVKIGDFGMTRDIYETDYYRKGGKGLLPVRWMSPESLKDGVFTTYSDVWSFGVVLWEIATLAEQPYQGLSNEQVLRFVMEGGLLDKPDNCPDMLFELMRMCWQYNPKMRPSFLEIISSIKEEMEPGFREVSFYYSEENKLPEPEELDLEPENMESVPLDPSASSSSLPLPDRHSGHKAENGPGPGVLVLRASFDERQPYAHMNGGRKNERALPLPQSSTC
In assay [5] the target is Interleukin-1 receptor-associated kinase 1 (Homo sapiens, UniProt P51617).
Sequence of Interleukin-1 receptor-associated kinase 1 (P51617 whole entry): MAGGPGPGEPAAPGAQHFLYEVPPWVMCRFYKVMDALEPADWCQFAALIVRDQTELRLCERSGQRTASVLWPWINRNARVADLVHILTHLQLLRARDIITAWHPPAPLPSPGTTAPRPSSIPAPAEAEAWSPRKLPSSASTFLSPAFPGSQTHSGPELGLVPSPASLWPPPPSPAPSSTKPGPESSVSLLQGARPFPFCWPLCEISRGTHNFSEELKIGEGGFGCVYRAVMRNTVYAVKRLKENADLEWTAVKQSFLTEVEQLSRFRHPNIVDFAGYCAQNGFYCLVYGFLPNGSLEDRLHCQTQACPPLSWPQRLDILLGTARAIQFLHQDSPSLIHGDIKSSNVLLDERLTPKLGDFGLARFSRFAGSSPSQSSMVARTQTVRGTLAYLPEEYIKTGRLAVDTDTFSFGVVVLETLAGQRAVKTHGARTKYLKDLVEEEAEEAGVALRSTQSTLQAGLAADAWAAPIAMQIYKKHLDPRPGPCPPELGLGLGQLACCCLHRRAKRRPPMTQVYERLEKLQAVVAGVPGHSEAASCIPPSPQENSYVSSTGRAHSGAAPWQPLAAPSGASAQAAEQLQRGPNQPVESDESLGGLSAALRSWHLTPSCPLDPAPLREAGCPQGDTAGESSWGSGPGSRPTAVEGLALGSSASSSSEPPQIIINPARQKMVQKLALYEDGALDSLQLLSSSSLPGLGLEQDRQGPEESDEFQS
Assay [6] deals with Tyrosine-protein kinase Lyn (Homo sapiens, UniProt P07948).
Sequence of Tyrosine-protein kinase Lyn (P07948 whole entry): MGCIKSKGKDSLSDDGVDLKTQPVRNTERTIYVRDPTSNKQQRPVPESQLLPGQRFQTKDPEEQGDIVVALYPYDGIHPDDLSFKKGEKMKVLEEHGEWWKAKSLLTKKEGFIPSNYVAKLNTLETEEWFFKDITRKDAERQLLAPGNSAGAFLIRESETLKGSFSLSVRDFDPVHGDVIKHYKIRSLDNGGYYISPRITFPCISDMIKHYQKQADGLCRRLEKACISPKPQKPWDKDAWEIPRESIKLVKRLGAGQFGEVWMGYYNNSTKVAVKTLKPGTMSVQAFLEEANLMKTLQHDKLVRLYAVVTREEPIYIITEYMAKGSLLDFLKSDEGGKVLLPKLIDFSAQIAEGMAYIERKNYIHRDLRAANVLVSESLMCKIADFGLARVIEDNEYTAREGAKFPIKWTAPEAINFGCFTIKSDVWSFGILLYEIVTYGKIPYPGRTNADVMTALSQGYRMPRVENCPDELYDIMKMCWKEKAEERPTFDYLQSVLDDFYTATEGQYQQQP
Assay [7] has as its target T4, Dual specificity mitogen-activated protein kinase kinase 6 (Homo sapiens, UniProt P52564).
T4 sequence (P52564 whole entry): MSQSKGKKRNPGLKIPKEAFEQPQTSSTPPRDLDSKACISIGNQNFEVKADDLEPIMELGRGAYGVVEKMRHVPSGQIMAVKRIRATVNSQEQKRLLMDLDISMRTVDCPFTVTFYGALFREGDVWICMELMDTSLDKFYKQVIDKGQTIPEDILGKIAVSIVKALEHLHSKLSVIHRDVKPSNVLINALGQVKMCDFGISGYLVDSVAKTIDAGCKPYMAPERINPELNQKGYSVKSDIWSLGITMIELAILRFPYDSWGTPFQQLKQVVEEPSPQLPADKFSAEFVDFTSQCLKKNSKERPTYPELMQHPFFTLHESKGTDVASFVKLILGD

For assay [8], the target named is Mitogen-activated protein kinase 7 (Homo sapiens, UniProt Q13164).
Sequence of Mitogen-activated protein kinase 7 (Q13164 whole entry): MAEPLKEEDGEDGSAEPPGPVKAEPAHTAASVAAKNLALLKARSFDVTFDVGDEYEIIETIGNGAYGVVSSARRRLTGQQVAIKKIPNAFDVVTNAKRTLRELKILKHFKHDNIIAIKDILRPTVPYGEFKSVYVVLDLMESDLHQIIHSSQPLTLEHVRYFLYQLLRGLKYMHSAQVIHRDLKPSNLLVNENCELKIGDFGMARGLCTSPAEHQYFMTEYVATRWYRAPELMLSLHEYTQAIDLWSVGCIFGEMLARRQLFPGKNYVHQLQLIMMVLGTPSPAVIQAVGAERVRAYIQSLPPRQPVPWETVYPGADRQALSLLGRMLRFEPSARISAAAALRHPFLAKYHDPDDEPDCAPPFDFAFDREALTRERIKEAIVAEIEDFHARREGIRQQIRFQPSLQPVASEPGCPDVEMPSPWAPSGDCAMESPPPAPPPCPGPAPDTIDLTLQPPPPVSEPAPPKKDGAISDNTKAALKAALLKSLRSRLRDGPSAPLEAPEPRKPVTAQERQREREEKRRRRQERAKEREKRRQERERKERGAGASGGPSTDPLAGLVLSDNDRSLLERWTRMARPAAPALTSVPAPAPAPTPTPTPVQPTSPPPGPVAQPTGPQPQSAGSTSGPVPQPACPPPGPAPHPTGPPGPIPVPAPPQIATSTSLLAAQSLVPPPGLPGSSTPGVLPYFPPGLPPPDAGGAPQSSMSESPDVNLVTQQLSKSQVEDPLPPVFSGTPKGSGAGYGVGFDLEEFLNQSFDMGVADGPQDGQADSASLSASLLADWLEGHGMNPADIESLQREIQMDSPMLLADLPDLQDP
For assay [9], the target named is T5, Ras-related protein Rab-27A (Homo sapiens, UniProt P51159).
T5 sequence (P51159 whole entry): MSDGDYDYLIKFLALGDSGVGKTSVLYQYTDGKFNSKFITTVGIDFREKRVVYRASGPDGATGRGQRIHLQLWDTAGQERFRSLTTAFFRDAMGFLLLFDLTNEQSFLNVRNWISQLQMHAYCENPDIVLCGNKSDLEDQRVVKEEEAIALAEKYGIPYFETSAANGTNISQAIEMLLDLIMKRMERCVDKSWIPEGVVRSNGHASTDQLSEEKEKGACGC

The target in assay [10] is Tyrosine-protein kinase SYK (Homo sapiens, UniProt P43405).

Where a name gives a salt, the structure may show the parent alone. The source made the active and inactive calls.

As usually defined, the Kd is the equilibrium constant for the complex coming apart.
Further: in the data inactive means no Kd found up to 30 µM.

As to `COc1c(OCCCN2CCOCC2)ccc2c1N=C(NC(=O)c1cnc(N)nc1)N1CCN=C21` [COPANLISIB], the Kd (in assay [1]; in assay [2]; in assay [3]; at dCTP pyrophosphatase 1; in assay [4]; in assay [5]) was > 30 µM (inactive) in each case. Moreover, the Kd in assay [6] is > 30 µM (inactive); in assay [7] it was > 30 µM (inactive); in assay [8], > 30 µM (inactive); in [9] it was 4.49 µM; in assay [10], > 30 µM (inactive).

Take `C#Cc1cccc(Nc2ncnc3cc(OC)c(OCCCCCCC(=O)NO)cc23)c1` [CUDC-101]: the Kd (in assay [1]; in [2]; in [3]; on dCTP pyrophosphatase 1; in [4]; in [5]) was > 30 µM (inactive) throughout. Further, the Kd in [6], in [7], in assay [8], in [9] and in assay [10] was > 30 µM (inactive) each time.

Consider `CCS(=O)(=O)N1CCN(c2ccc(Nc3ncc(C(N)=O)c(NC4CC4)n3)cc2)CC1` [Cerdulatinib Hydrochloride], for which the Kd in [1] is > 30 µM (inactive); in [2] it was 4.86 µM (active); in assay [3] it was > 30 µM (inactive); at dCTP pyrophosphatase 1, > 30 µM (inactive); in [4], > 30 µM (inactive); in assay [5] it was > 30 µM (inactive). Moreover, the Kd in assay [6] is > 30 µM (inactive); in assay [7] it was > 30 µM (inactive); in assay [8], > 30 µM (inactive); in assay [9], > 30 µM (inactive); in assay [10] it was 0.44 µM (active).

`O=C(Nc1nc2cccc(-c3ccc(CN4CCS(=O)(=O)CC4)cc3)n2n1)C1CC1` [FILGOTINIB]: the Kd was > 30 µM (inactive) in assay [1]; > 30 µM (inactive) in assay [2]; > 30 µM (inactive) in assay [3]; > 30 µM (inactive) on dCTP pyrophosphatase 1; > 30 µM (inactive) in assay [4]; 4.71 µM (active) in [5]. Moreover, the Kd in assay [6], in assay [7], in assay [8], in assay [9] and in [10] was > 30 µM (inactive) throughout.

With `Cc1cccc(-c2nn3c(c2-c2ccnc4ccc(C(N)=O)cc24)CCC3)n1` [GALUNISERTIB], the Kd (in assay [1]; in assay [2]; in [3]; at dCTP pyrophosphatase 1; in [4]; in [5]) was > 30 µM (inactive) in each case. The Kd in [6], in [7], in assay [8], in assay [9] and in assay [10] was > 30 µM (inactive) each time.

Turning to `CCn1cc(-c2ccnc3[nH]c(-c4cccc(CN(C)C)c4)cc23)c(-c2ccc(NC(=O)N(C)C)cc2)n1` [GSK-1070916], the Kd (in [1]; in assay [2]; in assay [3]; at dCTP pyrophosphatase 1; in assay [4]; in assay [5]) was > 30 µM (inactive) in each case. Moreover, the Kd in assay [6], in assay [7], in assay [8], in [9] and in assay [10] was > 30 µM (inactive) each time.

`O=C(Nc1cc(C(F)(F)F)cc(C(F)(F)F)c1)c1cc(Cl)ccc1O` [IMD-0354]: the Kd (in assay [1]; in [2]; in assay [3]; at dCTP pyrophosphatase 1; in assay [4]; in [5]) was > 30 µM (inactive) each time. For the same compound, the Kd in assay [6], in assay [7], in [8], in [9] and in assay [10] was > 30 µM (inactive) throughout.

For the compound `CNC(=O)c1nn(C)c2c1C(C)(C)Cc1cnc(Nc3ccc(N4CCN(C)CC4)cc3)nc1-2` [MILCICLIB], the Kd is > 30 µM (inactive) in assay [1]; > 30 µM (inactive) in assay [2]; > 30 µM (inactive) in [3]; 1.59 µM (active) on dCTP pyrophosphatase 1; > 30 µM (inactive) in assay [4]; 2.06 µM (active) in [5]. Also, the Kd is 3.54 µM (active) in [6]; > 30 µM (inactive) in [7]; > 30 µM (inactive) in [8]; > 30 µM (inactive) in [9]; > 30 µM (inactive) in assay [10].

As to `CN(C[C@@H]1COCCO1)S(=O)(=O)Nc1ccc2ccc3ncc(-c4cnn(C)c4)cc3c(=O)c2c1` [MK-2461], the Kd (in assay [1]; in [2]; in assay [3]; on dCTP pyrophosphatase 1; in assay [4]; in assay [5]) was > 30 µM (inactive) each time. The Kd in [6], in assay [7], in assay [8], in [9] and in assay [10] was > 30 µM (inactive) throughout.

In the case of `Cn1cc(-c2cnc3ccc4ccc(CS(=O)(=O)NCc5ccccn5)cc4c(=O)c3c2)cn1` [MK-8033], the Kd (in [1]; in assay [2]; in assay [3]; at dCTP pyrophosphatase 1; in [4]; in assay [5]) was > 30 µM (inactive) throughout. The Kd in [6], in assay [7], in [8], in [9] and in assay [10] was > 30 µM (inactive) in each case.
